{"source": "patent US20240182525A1", "about": "“NOVEL BICYCLIC COMPOUND, OPTICAL ISOMER THEREOF OR PHARMACEUTICALLY ACCEPTABLE SALT THEREOF, USE THEREOF, AND PREPARATION METHOD THEREFOR” (KOREARESEARCH INSTITUTE OF BIOSCIENCE AND BIOTECHNOLOGY, priority 2021, published 2024)", "key": {"[1]": {"assay": "Cytotoxicity assay, MCF7", "format": "cell-based", "conditions": "human, MCF7 cells (breast cancer); MCF7, 48 hours, maximum concentration 100 μM", "procedure": "(§1) To measure the cytotoxicity of the compound represented by Chemical Formula 1 (Chemical Formula 1-1), toxicity was measured in mouse preadipocyte 3T3-L1 cell line, human malignant melanoma A375 cell line, mouse malignant melanoma B16F10 cell line, human oral cancer MDA-MB-435 cell line, mouse breast cancer 4T1 cell line, human breast cancer MCF7 cell line, human brain cancer U87MG cell line, human glioblastoma U373MG cell line, human cervical cancer HeLa cell line, mouse embryonic fibroblast (MEF) cell line, human embryonic kidney HEK293T cell line (Korea Cell Line Bank). First, 1×10^4 cells were divided into 200 μl each in a 96-well plate using Dulbecco's Modified Eagle's Medium (DMEM) supplemented with 10% fetal bovine serum (FBS), […] streptomycin, and 50 U/ml penicillin, while maintaining various cells at 37r in an atmosphere of 5% CO2. The cells were treated with the compound of Chemical Formula 1-1 of the present invention at a maximum concentration of 100 μM and cultured for 48 hours under the same culture conditions. After the incubation, the culture media were removed and the cytotoxicity test results were confirmed (Table 2 and FIG. 3 below)."}, "[2]": {"test_system": "Wnt activity (HEK293T-TopFLASH cells)", "assay": "TopFLASH luciferase assay, HEK293T-TopFLASH stable cell line (Wnt3a activity assay)", "format": "cell-based, human", "conditions": "1-50 μM, 24 hours", "procedure": "In order to measure the level of Wnt activity of the compound of Chemical Formula 1-1, TopFLASH luciferase assay was performed on the HEK293T cell line. The TopFLASH luciferase assay was performed by creating a HEK293T-TopFLASH stable cell line with a viral vector made by combining Luciferase (reporter gene) with the TCF7 promoter. HEK293T-TopFLASH cells were cultured in a 96-well plate (1×10^4 cells/well), and the next day, the cells were treated with 1-50 μM of the compound of Chemical Formula 1-1 and confirmed by One-Glo™ (modified luciferin, Pormega, USA) after 24 hours."}, "[3]": {"test_system": "osteogenic differentiation-related genes (mCol1a1, mOsteocalcin, mOsterix)", "assay": "RT-PCR of osteogenic differentiation-related genes", "format": "cell-based, mouse", "conditions": "Day 7 of differentiation, FIG. 17", "from_the_text": "In order to confirm the effect of the compound of Chemical Formula 1 according to the present invention on promoting osteogenic differentiation-related genes, the expression levels of genes promoting osteogenesis were confirmed.\nTo confirm genetic changes during the differentiation process, total RNA was isolated on Day 7 of differentiation using Trizol reagent (Invitrogen, CA, USA) according to the manufacturer's instructions. The cultured cells were washed twice with cold PBS and lysed with 1 ml of Trizol reagent. To the resulting product, 200 μl of chloroform was added and mixed, followed by centrifugation at 4° C. and 12000 rpm for 20 minutes to separate the supernatant. The same amount of isopropanol was added to the separated supernatant, mixed, and centrifuged again at 4° C. and 12000 rpm. The supernatant was removed, and the remaining pellet was washed three times with 70% ethanol to separate RNA. For RT-PCR, the same amount of total RNA (5 μl) was put into the RT-PCR amplification kit and reacted at 45° C. for 60 minutes to prepare complementary DNA (cDNA). RT-PCR was performed on the cDNA by using AccuPower®RT/PCR PreMix (Bioneer, Korea). Briefly, 2 μl each of 75 mM rATP, rUTP, rCTP, rGTP, enzyme mixture, and 10× reaction buffer was added to 8 μl of the cDNA solution prepared above, followed by amplification according to the manufacturer's instructions, and the quantity and quality of the amplified mRNA was evaluated using nanodrops and 1% agarose gel electrophoresis."}, "[4]": {"assay": "Cytotoxicity assay, B16F10", "format": "cell-based", "conditions": "mouse, B16F10 cells (malignant melanoma); B16F10, 48 hours, maximum concentration 100 μM", "procedure": "as §1"}}, "data": [{"compound": "CC(C)CC1NC(=O)C2CCCN2C(=O)C(C(O)C(C)C)NC(=O)CNC(=O)C(C(C)O)NC(=O)C2NC(=O)C(NC(=O)/C=C/c3ccccc3C(O)C(C)O)C(C)OC(=O)C(CC(N)=O)NC(=O)C(NC(=O)C(O)NC1=O)C(O)c1ccc(O)c(c1)Oc1ccc2cc1", "note": "(stereo not shown) [Chemical Formula 1-1]", "values": [{"measurement": "IC50 at 48 h", "setting": "[1]", "result": "> 100", "unit": "µM"}, {"measurement": "Wnt activity (luciferase values)", "setting": "[2]; compound alone, FIG. 4", "result": "greatly increased"}, {"measurement": "Wnt activity (luciferase values)", "setting": "[2]; simultaneous treatment with Wnt3a-conditional media (2.5%), FIG. 5", "result": "greatly increased"}, {"measurement": "mRNA expression level of mCol1a1", "setting": "[3]", "result": "increase"}, {"measurement": "mRNA expression level of mOsteocalcin", "setting": "[3]", "result": "increase"}, {"measurement": "mRNA expression level of mOsterix", "setting": "[3]", "result": "increase"}, {"measurement": "IC50 at 48 h", "setting": "[4]", "result": "> 100", "unit": "µM"}]}]}
